Holding throughout (assay type): functional
Experiment [1] concerns Staphylococcus aureus. Kind of experiment: Antimicrobial activity against methicillin- and tetracycline resistant Staphylococcus aureus COL by broth microdilution method. In general terms: Broth dilution looks for growth in wells or tubes with falling amounts of substance.
Experiment [2] relates to Staphylococcus aureus. In words: Antimicrobial activity against erythromycin-resistant, tetracycline-sensitive and yabJ-spoVG operon deficient Staphylococcus aureus COL mutant by broth microdilution method.
For experiment [3], the system named is Staphylococcus aureus. In words: Antimicrobial activity against erythromycin-resistant, tetracycline-sensitive and rsbUVW-sigB operon deficient Staphylococcus aureus COL mutant by broth microdilution method.
Experiment [4] has as its system Staphylococcus aureus. In words: Antimicrobial activity against erythromycin-resistant and rsbUVW-sigB operon deficient Staphylococcus aureus COL by broth microdilution method.
For experiment [5], the system named is Staphylococcus aureus. Kind of experiment: Antimicrobial activity against methicillin-resistant and tetracycline-sensitive Staphylococcus aureus COL mutant by broth microdilution method.
Experiment [6] has as its system Staphylococcus aureus. In words: Antimicrobial activity against erythromycin-, tetracycline resistant and yabJ-spoVG operon deficient Staphylococcus aureus COL by broth microdilution method.

≈ marks a conversion by molar mass, not a printed value.

In the case of `Cc1onc(-c2ccccc2)c1C(=O)N[C@@H]1C(=O)N2[C@@H]1SC(C)(C)[C@@H]2C(=O)O` [OXACILLIN], the MIC in the experiment on Staphylococcus aureus [1] was more than 256 µg/mL; against Staphylococcus aureus [2], more than 256 µg/mL; in the experiment with Staphylococcus aureus [3] it was more than 256 µg/mL; in the experiment on Staphylococcus aureus [4], 256 µg/mL (≈ 638 µM); with Staphylococcus aureus [5], more than 256 µg/mL; with Staphylococcus aureus [6], 128 µg/mL (≈ 319 µM).

Usually MIC stands for the lowest concentration found to suppress growth. Read a low MIC as greater potency.

Values taken from ChEMBL document CHEMBL1649170, “Functional characterization of the sigmaB-dependent yabJ-spoVG operon in Staphylococcus aureus: role in methicillin and glycopeptide resistance” (2009).
